The subject of the assay is mutant Huntington (HTT) protein. Description: HTT Mutant HTRF iPSC assay (mHTT protein lowering). The assay is classed as cell-based. To be noted: human iPSC derived from a HTT patient with a poly-Q49 mutation. In general terms: In TR-FRET formats the signal depends on donor and acceptor labels being close together.

Take `Cc1cn2cc(NC(=O)c3cc4ccc(C5=CC6CCC(C5)N6)nc4s3)cc(F)c2n1` (stereo not drawn) [Compound 83, 6-(8-azabicyclo[3.2.1]oct-2-en-3-yl)-N-(8-fluoro-2-methylimidazo[1,2-a]pyridin-6-yl)thieno[2,3-b]pyridine-2-carboxamide]: the IC50 was under 0.1 µM.

With `Cc1cn2cc(NC(=O)c3cc4ccc(C5=CCCNC5)nc4s3)cc(F)c2n1` [Compound 84, N-(8-fluoro-2-methyl-imidazo[1,2-a]pyridin-6-yl)-6-(1,2,3,6-tetrahydropyridin-5-yl)thieno[2,3-b]pyridine-2-carboxamide], the IC50 is under 0.1 µM.

`Cc1cn2cc(NC(=O)c3cc4ccc(C5CCNCC5)nc4s3)cc(F)c2n1` [Compound 85, N-(8-fluoro-2-methylimidazo[1,2-a]pyridin-6-yl)-6-(piperidin-4-yl)thieno[2,3-b]pyridine-2-carboxamide] returned an IC50 of under 0.1 µM.

`Cc1cn2cc(NC(=O)c3cc4ncc(N5CCC(N(C)C)C5)cc4o3)cc(F)c2n1` (stereo not drawn) [Compound 86, 6-[3-(dimethylamino)pyrrolidin-1-yl]-N-(8-fluoro-2-methyl-imidazo[1,2-a]pyridin-6-yl)furo[3,2-b]pyridine-2-carboxamide] came in with an IC50 of 0.1 to 1 µM.

`COc1cc2nn(C)cc2cc1NC(=O)c1nc2ccc(N3CCC4(CCCN4C)C3)nc2s1` (stereo not drawn) [Compound 87, N-(6-methoxy-2-methyl-2H-indazol-5-yl)-5-(1-methyl-1,7-diazaspiro[4.4]nonan-7-yl)thiazolo[5,4-b]pyridine-2-carboxamide] gave a concentration for half-maximal inhibition (IC50) of under 0.1 µM.

As to `COc1cc2nn(C)cc2cc1NC(=O)c1nc2ccc(N3CCC4(CN(C)C4)C3)nc2s1` [Compound 88, N-(6-methoxy-2-methyl-2H-indazol-5-yl)-5-(2-methyl-2,6-diazaspiro[3.4]octan-6-yl)thiazolo[5,4-b]pyridine-2-carboxamide], the IC50 is under 0.1 µM.

`Cc1cn2cc(NC(=O)c3nc4ccc(N5CC[C@@H](N(C)C)C5)nc4s3)cc(F)c2n1` [Compound 89, 5-[(3R)-3-(dimethylamino)pyrrolidin-1-yl]-N-(8-fluoro-2-methyl-imidazo[1,2-a]pyridin-6-yl)thiazolo[5,4-b]pyridine-2-carboxamide] displayed an IC50 of under 0.1 µM.

Compound `COc1cc2nn(C)cc2cc1NC(=O)c1nc2ccc(N3C[C@@H]4CN(C)C[C@@H]43)nc2s1` [Compound 90, N-(6-methoxy-2-methyl-2H-indazol-5-yl)-5-((1S,5R)-3-methyl-3,6-diazabicyclo[3.2.0]heptan-6-yl)thiazolo[5,4-b]pyridine-2-carboxamide] yielded a concentration for half-maximal inhibition (IC50) of under 0.1 µM.

The compound `COc1c(NC(=O)c2nc3ccc(N4CC[C@H](N(C)C)C4)nc3s2)cn2cc(C)nc2c1F` [Compound 91, (S)-5-(3-(dimethylamino)pyrrolidin-1-yl)-N-(8-fluoro-7-methoxy-2-methylimidazo[1,2-a]pyridin-6-yl)thiazolo[5,4-b]pyridine-2-carboxamide] returned an IC50 of under 0.1 µM.

As to `Cc1cn2cc(NC(=O)c3nc4ccc(N5CC[C@H](N(C)C)C5)nc4s3)cc(F)c2n1` [Compound 93, (S)-5-(3-(dimethylamino)pyrrolidin-1-yl)-N-(8-fluoro-2-methylimidazo[1,2-a]pyridin-6-yl)thiazolo[5,4-b]pyridine-2-carboxamide], the IC50 is under 0.1 µM.

The compound `COc1cc(NC(=O)c2nc3ccc(N4CCC5(CCCN5C)C4)nc3s2)cn2cc(C)nc12` (stereo not drawn) [Compound 95, N-(8-methoxy-2-methylimidazo[1,2-a]pyridin-6-yl)-5-(1-methyl-1,7-diazaspiro[4.4]nonan-7-yl)thiazolo[5,4-b]pyridine-2-carboxamide] returned an IC50 of under 0.1 µM.

As for `CCN1CCN(c2ccc3nc(C(=O)Nc4cn5cc(C)nc5c(OC)n4)sc3n2)CC1` [Compound 96, 5-(4-ethylpiperazin-1-yl)-N-(8-methoxy-2-methylimidazo[1,2-a]pyrazin-6-yl)thiazolo[5,4-b]pyridine-2-carboxamide], the IC50 is under 0.1 µM.

Regarding `Cc1cn2cc(NC(=O)c3nc4ccc(N5CCC6(CCCN6C)C5)nc4s3)cc(F)c2n1` (stereo not drawn) [Compound 98, N-(8-fluoro-2-methylimidazo[1,2-a]pyridin-6-yl)-5-(1-methyl-1,7-diazaspiro[4.4]nonan-7-yl)thiazolo[5,4-b]pyridine-2-carboxamide], the concentration for half-maximal inhibition (IC50) is under 0.1 µM.

`Cc1cn2cc(NC(=O)c3nc4ccc(N5CCC(N6CCC6)C5)nc4s3)cc(F)c2n1` (stereo not drawn) [Compound 99, 5-(3-(azetidin-1-yl)pyrrolidin-1-yl)-N-(8-fluoro-2-methylimidazo[1,2-a]pyridin-6-yl)thiazolo[5,4-b]pyridine-2-carboxamide] gave an IC50 of under 0.1 µM.

Compound `COc1nc(NC(=O)c2nc3ccc(N4CCC(N(C)C)C4)nc3s2)cn2cc(C)nc12` (stereo not drawn) [Compound 100, 5-(3-(dimethylamino)pyrrolidin-1-yl)-N-(8-methoxy-2-methylimidazo[1,2-a]pyrazin-6-yl)thiazolo[5,4-b]pyridine-2-carboxamide] yielded an IC50 of under 0.1 µM.

On to `Cc1cn2cc(NC(=O)c3nc4ccc(N5CCNCC5)nc4s3)cc(F)c2n1` [Compound 102, N-(8-fluoro-2-methylimidazo[1,2-a]pyridin-6-yl)-5-(piperazin-1-yl)thiazolo[5,4-b]pyridine-2-carboxamide], for which the half-maximal inhibitory concentration (IC50) is under 0.1 µM.

`Cc1cn2cc(NC(=O)c3nc4ccc(NC5CC(C)(C)NC(C)(C)C5)nc4s3)cc(F)c2n1` [Compound 103, N-(8-fluoro-2-methylimidazo[1,2-a]pyridin-6-yl)-5-((2,2,6,6-tetramethylpiperidin-4-yl)amino)thiazolo[5,4-b]pyridine-2-carboxamide] gave a concentration for half-maximal inhibition (IC50) of under 0.1 µM.

`Cc1cn2cc(NC(=O)c3nc4ccc(N5C[C@H]6CN(C)C[C@H]65)nc4s3)cc(F)c2n1` [Compound 104, N-(8-fluoro-2-methylimidazo[1,2-a]pyridin-6-yl)-5-((1R,5S)-3-methyl-3,6-diazabicyclo[3.2.0]heptan-6-yl)thiazolo[5,4-b]pyridine-2-carboxamide] returned an IC50 of under 0.1 µM.

Turning to `Cc1cn2cc(NC(=O)c3nc4ccc(N5C[C@@H]6CCN[C@@H]6C5)nc4s3)cc(F)c2n1` [Compound 105, N-(8-fluoro-2-methylimidazo[1,2-a]pyridin-6-yl)-5-((3aS,6aS)-hexahydropyrrolo[3,4-b]pyrrol-5(1H)-yl)thiazolo[5,4-b]pyridine-2-carboxamide], the half-maximal inhibitory concentration (IC50) is under 0.1 µM.

Take `Cc1cn2cc(NC(=O)c3nc4ccc(N5C[C@@H]6CN(C)C[C@@H]65)nc4s3)cc(F)c2n1` [Compound 106, N-(8-fluoro-2-methylimidazo[1,2-a]pyridin-6-yl)-5-((1S,5R)-3-methyl-3,6-diazabicyclo[3.2.0]heptan-6-yl)thiazolo[5,4-b]pyridine-2-carboxamide]: the half-maximal inhibitory concentration (IC50) fell in the range of 0.1 to 1 µM.

Compound `CN[C@H]1CCN(c2ccc3nc(C(=O)Nc4cc(F)c5nc(C)cn5c4)sc3n2)C1` [Compound 107, (S)-N-(8-fluoro-2-methylimidazo[1,2-a]pyridin-6-yl)-5-(3-(methylamino)pyrrolidin-1-yl)thiazolo[5,4-b]pyridine-2-carboxamide] yielded an IC50 of under 0.1 µM.

With `Cc1cn2cc(NC(=O)c3nc4ccc(N5C[C@H]6CCN[C@H]6C5)nc4s3)cc(F)c2n1` [Compound 108, N-(8-fluoro-2-methylimidazo[1,2-a]pyridin-6-yl)-5-((3aR,6aR)-hexahydropyrrolo[3,4-b]pyrrol-5(1H)-yl)thiazolo[5,4-b]pyridine-2-carboxamide], the IC50 was under 0.1 µM.

As for `COc1nc(NC(=O)c2nc3ccc(N4CCC5(CCCN5C)C4)nc3s2)cn2cc(C)nc12` (stereo not drawn) [Compound 109, N-(8-methoxy-2-methylimidazo[1,2-a]pyrazin-6-yl)-5-(1-methyl-1,7-diazaspiro[4.4]nonan-7-yl)thiazolo[5,4-b]pyridine-2-carboxamide], the IC50 was under 0.1 µM.

As for `Cc1cn2cc(NC(=O)c3nc4ccc(N5C[C@@H]6CCN[C@@H]6C5)nc4s3)cc(F)c2n1` [Compound 110, N-(8-fluoro-2-methylimidazo[1,2-a]pyridin-6-yl)-5-((3aS,6aS)-hexahydropyrrolo[3,4-b]pyrrol-5(1H)-yl)thiazolo[5,4-b]pyridine-2-carboxamide], the 50% inhibitory concentration (IC50) was under 0.1 µM.

The compound `Cc1cn2cc(NC(=O)c3nc4ccc(N5CCC6(CCN6)C5)nc4s3)cc(F)c2n1` (stereo not drawn) [Compound 112, N-(8-fluoro-2-methylimidazo[1,2-a]pyridin-6-yl)-5-(1,6-diazaspiro[3.4]octan-6-yl)thiazolo[5,4-b]pyridine-2-carboxamide] returned a half-inhibitory concentration (IC50) of under 0.1 µM.

`Cc1cn2cc(NC(=O)c3nc4ccc(N(C)C5CC(C)(C)NC(C)(C)C5)nc4s3)cc(F)c2n1` [Compound 113, N-(8-fluoro-2-methylimidazo[1,2-a]pyridin-6-yl)-5-(methyl(2,2,6,6-tetramethylpiperidin-4-yl)amino)thiazolo[5,4-b]pyridine-2-carboxamide]: the 50% inhibitory concentration (IC50) is under 0.1 µM.

Regarding `COc1c(NC(=O)c2nc3ccc(N4CCC5(CN(C)C5)C4)nc3s2)cn2cc(C)nc2c1F` [Compound 114, N-(8-fluoro-7-methoxy-2-methylimidazo[1,2-a]pyridin-6-yl)-5-(2-methyl-2,6-diazaspiro[3.4]octan-6-yl)thiazolo[5,4-b]pyridine-2-carboxamide], the IC50 is under 0.1 µM.

Consider `COc1cn2nc(C)cc2cc1NC(=O)c1nc2ccc(N3CCC4(CCCN4C)C3)nc2s1` (stereo not drawn) [Compound 116, N-(6-methoxy-2-methylpyrazolo[1,5-a]pyridin-5-yl)-5-(1-methyl-1,7-diazaspiro[4.4]nonan-7-yl)thiazolo[5,4-b]pyridine-2-carboxamide], for which the half-maximal inhibitory concentration (IC50) is 0.1 to 1 µM.

`COc1nc(NC(=O)c2nc3ccc(N4CC[C@@H](N(C)C)C4)nc3s2)cn2cc(C)nc12` [Compound 117, (R)-5-(3-(dimethylamino)pyrrolidin-1-yl)-N-(8-methoxy-2-methylimidazo[1,2-a]pyrazin-6-yl)thiazolo[5,4-b]pyridine-2-carboxamide] returned a 50% inhibitory concentration (IC50) of under 0.1 µM.

`CCN1CCN(c2ccc3nc(C(=O)Nc4cc5cn(C)nc5cc4OC)sc3n2)CC1` [Compound 118, 5-(4-ethylpiperazin-1-yl)-N-(6-methoxy-2-methyl-2H-indazol-5-yl)thiazolo[5,4-b]pyridine-2-carboxamide] gave an IC50 of 0.1 to 1 µM.

One may read the IC50 as the point on the concentration scale where inhibition reaches its midpoint.

The values are drawn from US20260035387A1 (BIOGEN MA INC., priority 2022, published 2026).
